The test system of data set [1] is hippocampal neurons. Description: Hippocampal cell loss after pilocarpine-induced SE (FluoroJade B). Type of data set: in vivo. The settings on record: given 30 minutes after the first stage 3 convulsive seizure. An excerpt: Pilocarpine-induced SE results in marked cell loss in the hippocampus, when compared to the naïve vehicle-treated rats, as evidenced by increased FluoroJade B fluorescence in the dentate gyrus (DG), CA1, and CA3 cell layers.

For data set [2], the system named is mice. Description: Maximal Electroshock Seizure (MES) test, mice i.p. The settings on record: Mus musculus, ip. The data set is classed as in vivo. In general terms: The maximal electroshock test induces tonic seizures with an electrical stimulus.
The test system of data set [3] is rats. Description: Pilocarpine-induced Status Epilepticus in Rats (prevention; intervention @ 30 min).
Protocol: The animal testing was performed using the protocols developed in the Anticonvulsant Screening Program (ASP) at the National Institute of Neurological Disorders and Stroke (NINDS), National Institutes of Health (NIH).
Data set [4] has as its system mice. Description: Mouse formalin pain model. Type of data set: in vivo. The note with it: 76 mg/kg i.p., at 0.5 hours.
Data set [5] is described as follows: in vivo. The settings on record: mouse, ip.
Protocol: (§3) The animal testing was performed according to methods known in the relevant art.
Data set [6] relates to type II SMA fibroblasts (GM03813). Description: SMN protein localization, gem counting in type II SMA fibroblasts. Type of data set: cell-based. The note with it: 100 nM-10 μM, 5 days. Here is the method:
To validate the SMN2 promoter and exon 7 screens, the effects of compounds H, H (acid form), AY, F, BX, and BY were evaluated on the basis of expression and localization of SMN protein in type II SMA fibroblasts (GM03813). In a normal cell, SMN protein localized within the nucleus to discreet foci known as gems. In SMN-deficient SMA cells, the number of gems is greatly diminished. Although the function of gems is unknown, it is believed that they are somehow involved in the snRNP assembly function of SMN. Gem counting can, therefore, be considered an assay for SMN function.
GM03813 fibroblasts were treated with different doses (100 nM-10 μM) of compounds H, H (acid form), AY, F, BX, and BY for 5 days. SMN immunostaining was then completed on these cells and the number of gems was counted in 100 randomly-selected nuclei. […] In fact, the gem counts at the highest dose of compound H approach those observed for carrier fibroblasts (GM03814). When compared against treatment with 1 μM D157495—a D156844 derivative, all of the compounds tested performed as well as or, even better than D157495.

Data set [7] relates to mice. Description: Audiogenic Seizure susceptible (AGS) test, mice i.p. Type of data set: in vivo. The note with it: Mus musculus, ip.
In data set [8] the test system is mice. Description: Subcutaneous Metrazol Seizure threshold (s.c. MET) test, mice i.p. Type of data set: in vivo. The settings on record: Mus musculus.
Data set [9] deals with CYP-450 1A2 (Homo sapiens, UniProt P05177). Description: In vitro human CYP-450 study, 1A2. The settings on record: human enzyme. The data set is classed as in vitro ADME. An excerpt:
(§1) On the other hand, it is an inhibitor for 2C19, 2D6, 2A6 and 2C9.

The target in data set [10] is CYP-450 2C19 (Homo sapiens, UniProt P33261). Description: In vitro human CYP-450 study, 2C19. Type of data set: in vitro ADME. The settings on record: human enzyme.
CYP-450 2C19, sequence (P33261 whole entry): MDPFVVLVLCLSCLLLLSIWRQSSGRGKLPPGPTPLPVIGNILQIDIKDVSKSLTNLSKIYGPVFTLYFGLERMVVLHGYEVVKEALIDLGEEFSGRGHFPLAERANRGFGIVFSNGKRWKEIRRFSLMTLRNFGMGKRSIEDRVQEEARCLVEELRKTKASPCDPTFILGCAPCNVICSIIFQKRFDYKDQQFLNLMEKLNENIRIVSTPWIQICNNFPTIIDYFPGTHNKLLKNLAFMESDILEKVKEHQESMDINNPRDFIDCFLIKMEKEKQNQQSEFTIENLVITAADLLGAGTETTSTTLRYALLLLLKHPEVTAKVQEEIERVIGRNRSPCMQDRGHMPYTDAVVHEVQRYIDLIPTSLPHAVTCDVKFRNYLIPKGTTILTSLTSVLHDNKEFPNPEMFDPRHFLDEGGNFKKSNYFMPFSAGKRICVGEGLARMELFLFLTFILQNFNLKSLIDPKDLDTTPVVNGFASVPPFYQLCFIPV
From the text: as §1

For data set [11], the target named is CYP-450 2B6 (Homo sapiens, UniProt P20813). Description: In vitro human CYP-450 study, 2B6. The settings on record: human enzyme. The data set is classed as in vitro ADME.
CYP-450 2B6, sequence (P20813 whole entry): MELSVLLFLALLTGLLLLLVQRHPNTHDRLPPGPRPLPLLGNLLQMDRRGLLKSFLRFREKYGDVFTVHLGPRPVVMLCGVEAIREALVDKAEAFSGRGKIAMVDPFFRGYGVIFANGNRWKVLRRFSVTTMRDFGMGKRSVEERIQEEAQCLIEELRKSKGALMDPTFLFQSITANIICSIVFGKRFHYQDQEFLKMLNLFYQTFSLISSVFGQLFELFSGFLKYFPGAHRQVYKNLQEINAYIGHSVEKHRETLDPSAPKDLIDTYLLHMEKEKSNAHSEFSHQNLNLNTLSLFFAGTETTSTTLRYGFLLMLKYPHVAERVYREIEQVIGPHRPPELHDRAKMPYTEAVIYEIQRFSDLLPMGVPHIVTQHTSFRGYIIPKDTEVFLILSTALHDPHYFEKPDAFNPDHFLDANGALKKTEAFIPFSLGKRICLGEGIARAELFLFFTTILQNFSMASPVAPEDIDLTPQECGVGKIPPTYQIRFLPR
From the text: as §1

Data set [12] has as its system GABA receptors. Description: Electrophysiology, GABA receptor currents. Type of data set: cell-based. The note with it: at 100 μM, holding potential −70 mV. From the text:
(§2) The mechanisms of action of many currently marketed anticonvulsant drugs are not fully understood. Although numerous molecular targets exist wherein anticonvulsants may exert an effect, the final common pathway appears to be through modulation of voltage-gated and/or neurotransmitter-gated ion channels. Thus, the common link among the various proposed mechanisms involves the ability of an anticonvulsant to modulate ion channel function. Presently, a number of prototype anticonvulsants are thought to exert their action (at least in part) by reducing sustained, high-frequency repetitive firing of action potentials by modulating voltage-dependent sodium (Na+) channels. The effect of promising candidate substances on voltage-gated Na+ channels can be assessed using state-of-the-art electrophysiological techniques.

In data set [13] the test system is rats. Description: s.c. MET test, rats p.o. Type of data set: in vivo. The settings on record: Rattus norvegicus, p.o.
Data set [14] deals with mice. Description: Minimal motor impairment (MID50), mice i.p. The settings on record: mice, i.p.
Protocol: as §3
For data set [15], the target named is CYP-450 3A4 (Homo sapiens, UniProt P08684). Description: In vitro human CYP-450 study, 3A4. Type of data set: in vitro ADME. The note with it: human enzyme.
CYP-450 3A4, sequence (P08684 whole entry): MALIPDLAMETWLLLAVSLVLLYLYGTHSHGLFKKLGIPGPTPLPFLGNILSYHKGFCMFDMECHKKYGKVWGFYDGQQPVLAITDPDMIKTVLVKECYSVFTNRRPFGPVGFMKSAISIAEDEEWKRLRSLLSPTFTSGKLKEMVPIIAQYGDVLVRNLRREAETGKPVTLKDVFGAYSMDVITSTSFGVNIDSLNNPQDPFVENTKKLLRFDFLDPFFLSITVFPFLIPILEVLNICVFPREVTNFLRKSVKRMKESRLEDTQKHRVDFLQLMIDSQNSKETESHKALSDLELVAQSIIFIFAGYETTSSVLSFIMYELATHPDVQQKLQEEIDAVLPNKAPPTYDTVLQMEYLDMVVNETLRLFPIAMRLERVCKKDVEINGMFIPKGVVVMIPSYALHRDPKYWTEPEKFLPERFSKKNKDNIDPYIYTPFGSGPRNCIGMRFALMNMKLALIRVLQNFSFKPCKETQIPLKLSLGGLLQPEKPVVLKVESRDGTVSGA
From the text: as §1

For data set [16], the system named is sodium channels. Description: Electrophysiology, sodium currents. The settings on record: at 100 μM, ±S.E.M., 8 cells. The data set is classed as cell-based.
From the text: as §2
The effects of compound H (at a concentration of 100 μM) on sodium currents were evaluated in electrophysiological studies at holding potentials of −60 and −90 mV (using 8 cells). […] By way of comparison, the % of control inhibited for typical sodium-channel-blocking drugs such as phenytoin or lamotrigine is about 50%. […]

For data set [17], the system named is rats. Description: MES test, rats p.o. The data set is classed as in vivo. The settings on record: Rattus norvegicus, po.
Where [18] appears, read: Rattus norvegicus, 0.5 h, read-out: Intervention @ 30 min, Protection.
The mark [19] stands for this setting: Rattus norvegicus, read-out: Prevention, Protection.

Molecules are shown by their SMILES.

One may read the ED50 as the dose that gives a 50% effect, or the effect in half of the subjects.

CYP-450 1A2, sequence (P05177 whole entry): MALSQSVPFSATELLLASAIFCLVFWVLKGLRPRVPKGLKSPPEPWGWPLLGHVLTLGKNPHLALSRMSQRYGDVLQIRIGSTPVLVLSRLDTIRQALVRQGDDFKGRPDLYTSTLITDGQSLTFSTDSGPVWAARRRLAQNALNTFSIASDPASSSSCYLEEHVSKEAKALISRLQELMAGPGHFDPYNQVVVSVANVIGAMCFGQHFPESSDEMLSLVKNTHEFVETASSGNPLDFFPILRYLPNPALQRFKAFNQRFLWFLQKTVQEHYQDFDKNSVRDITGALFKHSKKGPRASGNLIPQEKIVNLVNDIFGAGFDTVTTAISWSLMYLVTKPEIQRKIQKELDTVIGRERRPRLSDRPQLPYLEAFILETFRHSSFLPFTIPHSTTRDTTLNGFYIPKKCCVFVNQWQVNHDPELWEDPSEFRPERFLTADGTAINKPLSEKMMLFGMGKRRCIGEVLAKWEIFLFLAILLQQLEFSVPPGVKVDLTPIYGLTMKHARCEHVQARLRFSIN

Take `C[C@H](CC(N)=O)c1ccc(OC(F)(F)F)cc1` (single isomer, unassigned) [Compound BX, R-(−)-3-(4-Trifluoromethoxy-phenyl)butyramide]: in [1], the “rats with partial neuroprotection (CA3 and hilar neurons of DG preserved)” value was 2. Further, the “animals with complete neuroprotection of hippocampal neurons against SE-induced cell death” value in data set [1] (rats) is reported as 11/15. Also, the ED50 in data set [2] (mice i.p., @ 1.0 hr) was found to be 47.9 mg/kg; in data set [7] (mice i.p., @ 0.5 hr), 16.5 mg/kg; in data set [8] (mice i.p., @ 1.0 hr), 51.4 mg/kg. Moreover, the responders at 155 mg/kg in data set [3] (setting [18]) amounted to 50%. Besides, the responders at 100 mg/kg in [3] (setting [19]) was 100%. For the same compound, in [3] (rats, 200 mg/kg, administered 30′ after the first stage 3 seizure), the “effect on convulsive SE” value is reported as “halted the convulsive SE”. The “pain response, acute phase” value in data set [4] is given as 84 % of the control. For the same compound, in data set [4], the “pain response, inflammatory phase” value is given as 41 % of the control. Besides, the TD50 at 0.25 hr in data set [5] is 104 mg/kg. Further, in data set [6], the “gem counts (SMN immunostaining, 100 nuclei)” value is “increase gem counts in a dose-dependent manner”.
`CC(CC(N)=O)c1ccc(OC(F)(F)F)cc1` (racemic) [Compound H, 3-[4-(trifluoromethoxy)-phenyl]butyramide]: the “inhibition of CYP-450 1A2” value in data set [9] is “either no or only a remote possibility of inhibiting”. For the same compound, in [10], the “inhibition of CYP-450 2C19” value is listed as “inhibitor”. Moreover, the ED50 is 76.1 mg/kg in [2] (mice); 76.1 mg/kg in [2] (mice i.p., @ 0.5 hrs); 88.1 mg/kg in data set [13]; 22.5 mg/kg in data set [7] (mice); 22.5 mg/kg in data set [7] (mice i.p., @ 0.5 hr); 91.4 mg/kg in [8] (mice i.p., @ 0.5 hrs). The ED50 came to 91.4 mg/kg in data set [8] (mice, i.p.) and 56.7 mg/kg in data set [17]. In addition, in data set [11], the “inhibition of CYP-450 2B6” value was “either no or only a remote possibility of inhibiting”. In data set [12], the GABA receptor response was 108±3 % of control. In data set [3] (setting [18]), the responders at 176 mg/kg was determined as 97%. The responders at 200 mg/kg in data set [3] (setting [19]) stood at 86%. Besides, the “pain response, acute phase” value in data set [4] is reported as 63 % of the control. For the same compound, the “pain response, inflammatory phase” value in data set [4] was 63 % of the control. The same compound returned a TD50 in data set [5] of 159 mg/kg. For the same compound, the “gem counts (SMN immunostaining, 100 nuclei)” value in data set [6] is “increase gem counts in a dose-dependent manner”. Also, the “relative potency in increasing gem counts” value in [6] is “most potent”. Besides, the “MID50 (median minimal motor impairment dose)” value in [14] is 158.98 mg/kg. For the same compound, the “inhibition of CYP-450 3A4” value in data set [15] is reported as “either no or only a remote possibility of inhibiting”. The results for the sodium currents in data set [16] (holding potential −60 mV) and in [16] (holding potential −90 mV) were 91±1 % of control and 98±1 % of control, respectively.

For the origin of these results see US12486218B2, “Compounds advantageous in the treatment of central nervous system diseases and disorders” (AurimMed Pharma, Inc., priority 2008, dated 2025).
